Values quoted from earlier work, collected in patent publication US20190298786A1, “EXTRACTS OF SAUDI ARABIAN HERBAL PLANTS, ANTI-CANCER METHOD USING SUCH EXTRACTS, AND CYTOLOGICAL PROFILING USING AUTOMATED HIGH-CONTENT IMAGING TECHNIQUE” (King Abdullah University of Science and Technology, priority 2016, published 2019).
Values after ≈ are worked out from the molar mass of the structure shown.

Tests used:
[1] = tested on: MCF7 cells
[2] = tested on: CasKi cells
[3] = tested on: KB cells
[4] = tested on: human cervical cancer (HOG-1) cell; conditions: HOG-1 cells, different concentrations

Row | SMILES | IC50 (cytotoxic effects) [1] [µg/mL] | IC50 (cytotoxic effects) [2] [µg/mL] | IC50 (cytotoxic effects) [3] [µg/mL] | effect on cell growth and DNA synthesis [4]
1 | CC(C)(C)c1ccc(O)c(C(C)(C)C)c1 [2,4-ditert-butylphenol] | 5.75 (≈ 27.9 µM) | 4.5 (≈ 21.8 µM) | 0.81 (≈ 3.93 µM) | 
2 | CCCCCCCCCCCCCCCCCC(=O)O [stearic acid, Stearic acid] |  |  |  | inhibited
